Assay results published in US20230143612A1 (Arbutus Biopharma Corporation, priority 2020, published 2023).

Biological target: PD-L1 His protein / PD-1 Fc protein (Homo sapiens, UniProt Q9NZQ7)
Assay: HTRF Assay (PD-1/PD-L1 interaction)
Assay type: binding
Conditions: PD-L1 His 6 nM, PD-1 Fc 6 nM
How it was run: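 HTRF: PD-L1 His (6 nM final), compound (3-fold dilutions, 20 μM to 0.001 μM final) and PD-1 Fc (6 nM final) preincubated 15 min at room temperature. Anti-human IgG-XL665 and anti-6HIS Tb cryptate (mixed at 6.7 nM and 0.35 nM) then added for 1 h at room temperature before reading.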

PD-L1 His protein / PD-1 Fc protein, sequence (Q9NZQ7 19-238 limits assumed): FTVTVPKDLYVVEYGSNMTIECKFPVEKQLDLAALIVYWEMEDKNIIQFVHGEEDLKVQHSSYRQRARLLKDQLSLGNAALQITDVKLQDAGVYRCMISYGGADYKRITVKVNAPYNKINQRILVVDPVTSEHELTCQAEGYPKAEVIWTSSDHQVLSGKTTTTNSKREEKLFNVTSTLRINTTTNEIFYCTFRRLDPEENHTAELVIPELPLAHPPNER

Row | Compound | IC50 [nM]
1 | COc1nc(-c2cccc(-c3cccc(-c4cc5c(=O)n(C)c(CN6CC7(C6)CN(C(C)=O)C7)nn5c4)c3Cl)c2Cl)ccc1CNC[C@@H]1CCC(=O)N1 [Example 460, 2-[(2-Acetyl-2,6-diazaspiro[3.3]heptan-6-yl)methyl]-6-[2-chloro-3-[2-chloro-3-[6-methoxy-5-[[[(2S)-5-oxopyrrolidin-2-yl]methylamino]methyl]-2-pyridyl]phenyl]phenyl]-3-methyl-pyrrolo[2,1-f][1,2,4]triazin-4-one] | 9.9
2 | COc1nc(-c2cccc(-c3cccc(-c4cc5c(=O)n(C)c(CN6CC(C(C)(C)O)C6)nn5c4)c3Cl)c2Cl)ccc1CNC[C@@H]1CCC(=O)N1 [Example 461, 6-[2-Chloro-3-[2-chloro-3-[6-methoxy-5-[[[(2S)-5-oxopyrrolidin-2-yl]methylamino]methyl]-2-pyridyl]phenyl]phenyl]-2-[[3-(1-hydroxy-1-methyl-ethyl)azetidin-1-yl]methyl]-3-methyl-pyrrolo[2,1-f][1,2,4]triazin-4-one] | 13
3 | COc1nc(-c2cccc(-c3cccc(-c4cc5c(=O)n(C)c(CNCC(C)(C)F)nn5c4)c3Cl)c2Cl)ccc1CNC[C@@H]1CCC(=O)N1 [Example 462, (S)-6-(2,2′-Dichloro-3′-(6-methoxy-5-((((5-oxopyrrolidin-2-yl)methyl)amino)methyl)pyridin-2-yl)-[1,1′-biphenyl]-3-yl)-2-(((2-fluoro-2-methylpropyl)amino)methyl)-3-methylpyrrolo[2,1-f][1,2,4]triazin-4(3H)-one] | 58
4 | COc1nc(-c2cccc(-c3cccc(-c4cc5c(=O)n(C)c(CNCC6(F)CC6)nn5c4)c3Cl)c2Cl)ccc1CNC[C@@H]1CCC(=O)N1 [Example 463, (S)-6-(2,2′-Dichloro-3′-(6-methoxy-5-((((5-oxopyrrolidin-2-yl)methyl)amino)methyl)pyridin-2-yl)-[1,1′-biphenyl]-3-yl)-2-((((1-fluorocyclopropyl)methyl)amino)methyl)-3-methylpyrrolo[2,1-f][1,2,4]triazin-4(3H)-one] | 36
5 | COc1nc(-c2cccc(-c3cccc(-c4cc5c(=O)n(C)c(CN[C@H]6C[C@](C)(O)C6)nn5c4)c3Cl)c2Cl)cc(Cl)c1CNC[C@@H]1CCC(=O)N1 [Example 464, 6-(2,2′-dichloro-3′-(4-chloro-6-methoxy-5-(((((S)-5-oxopyrrolidin-2-yl)methyl)amino)methyl)pyridin-2-yl)-[1,1′-biphenyl]-3-yl)-2-((((1r,3r)-3-hydroxy-3-methylcyclobutyl)amino)methyl)-3-methylpyrrolo[2,1-f][1,2,4]triazin-4(3H)-one] | 7.5
6 | COc1nc(-c2cccc(-c3cccc(-c4cc5c(=O)n(C)c(CNCC(C)(C)C(F)(F)F)nn5c4)c3Cl)c2Cl)ccc1CNC[C@@H]1CCC(=O)N1 [Example 466, (S)-6-(2,2′-Dichloro-3′-(6-methoxy-5-((((5-oxopyrrolidin-2-yl)methyl)amino)methyl)pyridin-2-yl)-[1,1′-biphenyl]-3-yl)-3-methyl-2-(((3,3,3-trifluoro-2,2-dimethylpropyl)amino)methyl) pyrrolo[2,1-f][1,2,4]triazin-4(3H)-one] | 63
7 | COc1nc(-c2cccc(-c3cccc(-c4cc5c(cn4)C(=O)N(CCNC[C@@H]4CCC(=O)N4)C5)c3Cl)c2Cl)ccc1CNC[C@@H]1CCC(=O)N1 [Example 467, 6-(2,2′-Dichloro-3′-(6-methoxy-5-(((((S)-5-oxopyrrolidin-2-yl)methyl)amino)methyl)pyridin-2-yl)-[1,1′-biphenyl]-3-yl)-2-(2-((((S)-5-oxopyrrolidin-2-yl)methyl)amino)ethyl)-1H-pyrrolo[3,4-c]pyridin-3(2H)-one] | 0.1
8 | COc1nc(-c2cccc(-c3cccc(-c4cc5c(=O)n(C)c(CN6CC7(CC(O)C7)C6)nn5c4)c3Cl)c2Cl)ccc1CNC[C@@H]1CCC(=O)N1 [Example 468, 6-[2-Chloro-3-[2-chloro-3-[6-methoxy-5-[[[(2S)-5-oxopyrrolidin-2-yl]methylamino]methyl]-2-pyridyl]phenyl]phenyl]-2-[(6-hydroxy-2-azaspiro[3.3]heptan-2-yl)methyl]-3-methyl-pyrrolo[2,1-f][1,2,4]triazin-4-one] | 7
9 | COc1nc(-c2cccc(-c3cccc(-c4cc5c(=O)n(C)c(CN6CC(C)(O)C6)nn5c4)c3Cl)c2Cl)ccc1CNC[C@@H]1CCC(=O)N1 [Example 469, 6-[2-Chloro-3-[2-chloro-3-[6-methoxy-5-[[[(2S)-5-oxopyrrolidin-2-yl]methylamino]methyl]-2-pyridyl]phenyl]phenyl]-2-[(3-hydroxy-3-methyl-azetidin-1-yl)methyl]-3-methyl-pyrrolo[2,1-f][1,2,4]triazin-4-one] | 5.9
10 | COc1nc(-c2cccc(-c3cccc(-c4cc5c(=O)n(C)c(CN6CC(C)(C#N)C6)nn5c4)c3Cl)c2Cl)ccc1CNC[C@@H]1CCC(=O)N1 [Example 470, 1-[[6-[2-chloro-3-[2-chloro-3-[6-methoxy-5-[[[(2S)-5-oxopyrrolidin-2-yl]methylamino]methyl]-2-pyridyl]phenyl]phenyl]-3-methyl-4-oxo-pyrrolo[2,1-f][1,2,4]triazin-2-yl]methyl]-3-methyl-azetidine-3-carbonitrile] | 37
11 | COc1nc(-c2cccc(-c3cccc(-c4nc5c(c(OC)n4)CN(C[C@@H]4CCC(=O)N4)CC5)c3Cl)c2Cl)ccc1CNC[C@@H]1CCC(=O)N1 [Example 471, (S)-5-((((6-(2,2′-Dichloro-3′-(4-methoxy-6-(((S)-5-oxopyrrolidin-2-yl)methyl)-5,6,7,8-tetrahydropyrido[4,3-d]pyrimidin-2-yl)-[1,1′-biphenyl]-3-yl)-2-methoxypyridin-3-yl)methyl)amino)methyl)pyrrolidin-2-one] | 0.1
12 | COc1nc(-c2cccc(-c3cccc(-c4cc5c(=O)n(C)c(CNC[C@@H]6CCO6)nn5c4)c3Cl)c2Cl)ccc1CNC[C@@H]1CCC(=O)N1 [Example 472, 6-[2-Chloro-3-[2-chloro-3-[6-methoxy-5-[[[(2S)-5-oxopyrrolidin-2-yl]methylamino]methyl]-2-pyridyl]phenyl]phenyl]-3-methyl-2-[[[(2S)-oxetan-2-yl]methylamino]methyl]pyrrolo[2,1-f][1,2,4]triazin-4-one] | 400
13 | COc1nc(-c2cccc(-c3cccc(-c4cc5c(=O)n(C)c(CNC67CC(O)(C6)C7)nn5c4)c3Cl)c2Cl)ccc1CNC[C@@H]1CCC(=O)N1 [Example 473, (S)-6-(2,2′-Dichloro-3′-(6-methoxy-5-((((5-oxopyrrolidin-2-yl)methyl)amino)methyl)pyridin-2-yl)-[1,1′-biphenyl]-3-yl)-2-(((3-hydroxybicyclo[1.1.1]pentan-1-yl)amino)methyl)-3-methylpyrrolo[2,1-f][1,2,4]triazin-4(3H)-one] | 5.3
14 | COc1nc(-c2cccc(-c3cccc(-c4cc5c(=O)n(C)c(CNC[C@@H]6CCCO6)nn5c4)c3Cl)c2Cl)ccc1CNC[C@@H]1CCC(=O)N1 [Example 474, 6-[2-Chloro-3-[2-chloro-3-[6-methoxy-5-[[[(2S)-5-oxopyrrolidin-2-yl]methylamino]methyl]-2-pyridyl]phenyl]phenyl]-3-methyl-2-[[[(2S)-tetrahydrofuran-2-yl]methylamino]methyl]pyrrolo[2,1-f][1,2,4]triazin-4-one] | 21
15 | COc1nc(-c2cccc(-c3cccc(-c4cc5c(=O)n(C)c(CNC[C@H](C)OC)nn5c4)c3Cl)c2Cl)ccc1CNC[C@@H]1CCC(=O)N1 [Example 475, 6-[2-Chloro-3-[2-chloro-3-[6-methoxy-5-[[[(2S)-5-oxopyrrolidin-2-yl]methylamino]methyl]-2-pyridyl]phenyl]phenyl]-2-[[[(2S)-2-methoxypropyl]amino]methyl]-3-methyl-pyrrolo[2,1-f][1,2,4]triazin-4-one] | 530
16 | COc1nc(-c2cccc(-c3cccc(-c4cc5c(=O)n(C)c(CNC[C@H]6CNC(=O)C6)nn5c4)c3Cl)c2Cl)ccc1CNC[C@@H]1CCC(=O)N1 [Example 476, 6-[2-Chloro-3-[2-chloro-3-[6-methoxy-5-[[[(2S)-5-oxopyrrolidin-2-yl]methylamino]methyl]-2-pyridyl]phenyl]phenyl]-3-methyl-2-[[[(3S)-5-oxopyrrolidin-3-yl]methylamino]methyl]pyrrolo[2,1-f][1,2,4]triazin-4-one] | 33
17 | COc1nc(-c2cccc(-c3cccc(-c4cc5c(=O)n(C)c(CNC(C)C)nn5c4)c3Cl)c2Cl)ccc1CNC[C@@H]1CCC(=O)N1 [Example 477, 6-[2-Chloro-3-[2-chloro-3-[6-methoxy-5-[[[(2S)-5-oxopyrrolidin-2-yl]methylamino]methyl]-2-pyridyl]phenyl]phenyl]-2-[(isopropylamino)methyl]-3-methyl-pyrrolo[2,1-f][1,2,4]triazin-4-one] | 17
18 | COc1nc(-c2cccc(-c3cccc(-c4cc5c(=O)n(C)c(CNCC(C)(C)O)nn5c4)c3Cl)c2Cl)cc(Cl)c1CNC[C@@H]1CCC(=O)N1 [Example 478, (S)-6-(2,2′-Dichloro-3′-(4-chloro-6-methoxy-5-((((5-oxopyrrolidin-2-yl)methyl)amino)methyl)pyridin-2-yl)-[1,1′-biphenyl]-3-yl)-2-(((2-hydroxy-2-methylpropyl)amino)methyl)-3-methylpyrrolo[2,1-f][1,2,4]triazin-4(3H)-one] | 29
19 | COc1nc(-c2cccc(-c3cccc(-c4cc5c(=O)n(C)c(CNC(C)(C)C)nn5c4)c3Cl)c2Cl)ccc1CNC[C@@H]1CCC(=O)N1 [Example 479, 2-[(tert-Butylamino)methyl]-6-[2-chloro-3-[2-chloro-3-[6-methoxy-5-[[[(2S)-5-oxopyrrolidin-2-yl]methylamino]methyl]-2-pyridyl]phenyl]phenyl]-3-methyl-pyrrolo[2,1-f][1,2,4]triazin-4-one] | 14
